In patent US10456381B2, “Compositions and methods for treating plasma cell disorders and B-cell prolymphocytic disorders” (Knopp Biosciences LLC, priority 2013, dated 2019):
Read-outs that look alike come from different tables or passages of the source.

Assays:
eosinophils [1] = settings: for decline in mean serum eosinophils from baseline to week 12: 12 weeks, Part 1; for mean eosinophils at week 16 recovered to % of baseline levels: after one-month washout
Procedure: The Phase 2 trial was a two-part, double-blind study that evaluated the safety, tolerability, and clinical effects of dexpramipexole in ALS patients.
In Part 1, subjects were randomized to placebo (n=27), 50 mg/day (n=23), 150 mg/day (n=26), or 300 mg/day dexpramipexole (n=26) for 12 weeks.

eosinophils [2] = system: eosinophils
Procedure: In a 39-week repeat-dose toxicology study, minipigs were dosed at 0, 7.5, 25, and 75 mg/kg dexpramipexole by daily oral gavage through Study Day 45 and at 0, 7.5, 25, and 50 mg/kg dexpramipexole from Study Day 46 to study completion.

[3] = exposures up to 18 months
[4] = system: myeloid and lymphoid cell types, red blood cells, platelets; settings: 300 mg daily, month 6
Procedure: Hematological parameters were measured in a Phase 3 study of dexpramipexole in ALS. Because of the high rate of mortality among ALS patients, including subjects in the Phase 3 trial, hematology parameters obtained at the month 6 visit were chosen for analysis to remove the effect of study dropouts in later months.

eosinophils [5] = system: eosinophils; remark: listed apart in the source
Procedure: (§1) The phase 3 clinical trial was a double-blind study of dexpramipexole in ALS patients randomized 1:1 to placebo or dexpramipexole 300 mg daily treatment. Hematology parameters were collected as part of routine safety monitoring. Eosinophil and basophil counts were retrospectively analyzed by visit.
Eosinophil levels were summarized over available time points and analyzed by ANOVA testing the effect of treatment vs. placebo on mean changes in serum eosinophil counts from baseline. Subjects with baseline eosinophils from 0 to 0.02×10^9/L (constituting less than 2% of all subjects analyzed) were censored from the primary analysis because of the inherent limitation to observe a decline from baseline.
Statistical analysis of the change from baseline was performed at month 6 to remove the effect of study dropouts in later months.

bone marrow cells = settings: 30 mg/kg or 100 mg/kg daily gavage, 70 days, vs vehicle control
Procedure: The study consisted of 3 groups of BALB/cByJ mice (10 mice per group). Mice received daily gavage treatments of either 30 mg/kg, 100 mg/kg of dexpramipexole or vehicle control for 70 days. Bone marrow was processed into single cell suspensions and cells were stained with fluorescent conjugate antibodies to analyze the developmental stages of cells by flow cytometry. […] The columns depict the mean for each group and the error bar indicates the standard error of the mean.

basophils = settings: 300 mg daily
Procedure: as §1
Changes in basophil counts were also analyzed in the Phase 3 trial.

CCCN[C@@H]1CCc2nc(N)sc2C1 [dexpramipexole, (6R)-2-amino-4,5,6,7-tetrahydro-6-(propylamino) benzothiazole]
decline in mean serum eosinophils from baseline to week 12 (eosinophils [1]; 50 mg/day): 18.2% | mean eosinophils at week 16 recovered to % of baseline levels (eosinophils [1]; 150 mg/day group): 47 % of baseline levels | decline in mean serum eosinophils from baseline to week 12 (eosinophils [1]; 150 mg/day): 69.9% | mean eosinophils at week 16 recovered to % of baseline levels (eosinophils [1]; 300 mg/day group): 73 % of baseline levels | decline in mean serum eosinophils from baseline to week 12 (eosinophils [1]; 300 mg/day): 42.9% | decrease in eosinophil counts (eosinophils [1]; ALS subjects receiving dexpramipexole, Phase 2): dose- and time-dependent decrease | decline in eosinophils from week 16 to week 40 (eosinophils [1]; Part 2, 25 mg twice daily): 17.6% | decline in eosinophils from week 16 to week 40 (eosinophils [1]; Part 2, 150 mg twice daily): 78.9% | eosinophil counts in one subject with hypereosinophilia at Part 2 baseline (eosinophils [1]; one Phase 2 subject, persisted through month 12): decrease in eosinophil counts | safety assessment of eosinophil differences (eosinophils [2]; minipig, in vivo): not considered adverse | reduction in eosinophils (eosinophils [2]; minipigs, 7.5, 25 and 75/50 mg/kg daily oral gavage, 39 weeks): dose- and time-dependent reduction | tolerability in humans [3]: well-tolerated | all myeloid and lymphoid cell types measured, change from baseline [4]: statistically significant mean reductions | subjects experiencing a 50% or greater decline in eosinophil count (eosinophils [5]; 300 mg daily, after 6 months of treatment): 77.5 % of subjects | peripheral blood eosinophil count (eosinophils [5]; 300 mg daily, after 8-12 weeks of treatment): profound decrease | mean eosinophil counts reduced from baseline (eosinophils [5]; 300 mg daily, month 6): 68.4% | decrease in eosinophil count in subjects with higher eosinophil counts (>0.25×10^9/L) (eosinophils [5]; 300 mg daily, n=42, after 6 months of treatment): 75% | time at which eosinophil-lowering effect reached plateau (eosinophils [5]; 300 mg daily, persisted through month 12): ~4 month | eosinophil counts in subject with highest baseline eosinophil count (eosinophils [5]; one Phase 3 subject, persisted through month 12): decrease in eosinophil counts | Siglec-F^lo IL5Rα^hi positive cells (developing B cells, basophils and other cell populations) in bone marrow (bone marrow cells): lowered | number of Scal^+ c-Kit^+ lineage negative cells (multipotent hematopoietic stem cells) in bone marrow (bone marrow cells): lowered | time at which basophil count decline reached plateau (basophils; remained reduced through month 12): ~4 month | mean basophil counts reduced from baseline (basophils; six month analysis): 45.5%
